Assay [1] addresses T1, Cox-1 (Homo sapiens, UniProt P23219).
T1 construct: from tissue; host or cells: fresh human whole blood
The assay is described as follows: Cox-1 activity in human whole blood (TXB2). The note with it: read-out: hWB inhibition COX-1 IC50. Type of assay: cell-based. On the procedure: (§1) II. Determination of Cox-1- and Cox-2-Activity in Human Whole Blood
(§2) The Cox-1- and Cox-2-activity in human whole blood is determined according to a modification of the method described in the publication of C. Brideau et al., “A human whole blood assay for clinical evaluation of biochemical efficacy of cyclooxygenase inhibitors”, Inflamm Res 1996; 45: 68-74. The respective part of the description is hereby incorporated by reference and forms part of the present disclosure.
For Cox-1 activity determination, fresh human blood is distributed in a volume of 0.5 ml to silicone Eppendorf tubes, into which 2 μl of the compound to be tested or dimethylsulfoxide (DMSO) at a final concentration of 0.4% (volume/volume). The tubes are inverted for homogenization and incubated for 1 hour at 37° C. under slight stirring. Afterwards they are centrifuged for 15 min at 10500 g and 100 μl of serum is collected. Proteins are precipitated by the addition of 400 μl of methanol to each tube, tubes were centrifuged for 10 minutes at 5000 g and 300 μl of supernatant is aspirated and then dried under nitrogen atmosphere.
Tromboxane B2 (TXB2) concentration is quantified using an assay kit (Caymann Chemical, Ann Arbor, Mich., U.S.A., Catalogue number 519031) after reconstitution into 300 μl assay buffer supplied in the assay kit.

Assay [2] concerns the target T2, Cox-2 (Homo sapiens, UniProt P35354).
T2 construct: 0.5 ml of fresh human blood; from tissue; host or cells: fresh human whole blood stimulated with E. coli 0111:B4 LPS
T2 sequence (P35354 18-604): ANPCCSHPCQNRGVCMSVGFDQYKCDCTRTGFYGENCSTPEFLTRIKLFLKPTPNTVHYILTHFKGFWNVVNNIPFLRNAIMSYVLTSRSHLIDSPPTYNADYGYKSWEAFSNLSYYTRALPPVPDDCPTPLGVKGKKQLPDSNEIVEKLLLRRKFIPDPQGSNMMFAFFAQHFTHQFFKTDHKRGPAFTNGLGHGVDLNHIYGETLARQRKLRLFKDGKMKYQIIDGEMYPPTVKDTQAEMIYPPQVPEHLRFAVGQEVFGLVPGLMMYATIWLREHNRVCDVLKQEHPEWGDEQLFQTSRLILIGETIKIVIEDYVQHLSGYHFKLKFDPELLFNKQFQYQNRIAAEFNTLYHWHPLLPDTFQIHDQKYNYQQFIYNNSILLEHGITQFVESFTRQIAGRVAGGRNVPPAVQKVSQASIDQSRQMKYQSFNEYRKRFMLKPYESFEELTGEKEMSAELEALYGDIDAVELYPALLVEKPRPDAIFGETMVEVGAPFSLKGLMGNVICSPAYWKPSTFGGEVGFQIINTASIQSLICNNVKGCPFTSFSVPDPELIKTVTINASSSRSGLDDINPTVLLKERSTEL
The assay is described as follows: Cox-2 activity in human whole blood (LPS, PGE2). The settings on record: read-out: hWB inhibition COX-2 IC50. Type of assay: cell-based. On the procedure: as §1, §2
For Cox-2 activity determination, tubes are prepared with 2 μl of the compound to be tested or DMSO, 12 μg/ml of aspirine, 9 μl of 1% (weight/volume) sodium heparine and 0.5 ml of fresh human blood. Samples are pre-incubated at 37° C. during 15 minutes and E. coli 0111:B4 LPS (from Sigma Chemical, St. Louis, Mo. U.S.A., catalogue number L-3012) are added for incubation during 24 h at 37° C. The samples are centrifuged for 100 μl of plasma collection. 400 μl of Ethyl acetate and 1% (volume/volume) methanol are added to each sample and the tubes are stirred and centrifuged for 10 minutes at 5000 g at 4° C. 300μl of supernatant are aspirated and evaporated under nitrogen atmosphere. Prostaglandin E2 concentration is quantified using an assay kit from Cayman Chemical, Ann-Arbor, Mich., U.S.A. (Catalogue number: 514010 ) after reconstitution into 300 μl assay buffer supplied in the assay kit.

In assay [3] the test system is rats. Nature of the assay: Test for activity against edema in rats (carrageenin paw). Type of assay: in vivo. The note with it: Rattus norvegicus, oral route. The method, then:
IV. Test for Activity Against Edema in Rats
The test for activity against edema is carried out as described in the publication of Winter et al., Proc. Soc. Exp. Biol. Med. 111, 544-547, (1962). The respective part of the description is hereby incorporated by reference and forms part of the present disclosure.
At the beginning of each experimental session the rats are deprived of food, and kept in cages within groups of 5 animals, the cages being fitted with a grating on the floor to prevent coprophagy. After a period of 24 hours without food, the animals are marked in a suitable way, weighed and hydrated via oral administration of 30 ml/kg body weight of tap water. Half an hour after the hydratisation, the compounds to be tested are administered via oral route, in an amount of 10 ml/kg body weight as a suspension in gum arabic at 5% (weight/volume). One hour after administration of the compounds the animals receive 0.1 ml of the inflammation causing agent (carrageenin 1% weight/volume, in sterile solution), injected via subplantar route into the right hind paw of the rats. Immediately after the carrageenin injection the volume of the injected paw is determined using a plethysmometer. The readings are expressed in ml. Readings of the volume of the paw are taken every hour after administration of the carrageenin for 7 hours.
A general note: Carrageenan injected into the paw causes an acute inflammation.

In US20070093469A1, “Substituted azetidine compounds as cyclooxygenase-1-cyclooxygenase-2 inhibitors, and their preparation and use as medicaments” (LABORATORIOS DEL DR. ESTEVE S.A, priority 2004, published 2007) one finds IC50 and ED50 data, which are given here for three compounds.

T1 sequence (P23219 24-599): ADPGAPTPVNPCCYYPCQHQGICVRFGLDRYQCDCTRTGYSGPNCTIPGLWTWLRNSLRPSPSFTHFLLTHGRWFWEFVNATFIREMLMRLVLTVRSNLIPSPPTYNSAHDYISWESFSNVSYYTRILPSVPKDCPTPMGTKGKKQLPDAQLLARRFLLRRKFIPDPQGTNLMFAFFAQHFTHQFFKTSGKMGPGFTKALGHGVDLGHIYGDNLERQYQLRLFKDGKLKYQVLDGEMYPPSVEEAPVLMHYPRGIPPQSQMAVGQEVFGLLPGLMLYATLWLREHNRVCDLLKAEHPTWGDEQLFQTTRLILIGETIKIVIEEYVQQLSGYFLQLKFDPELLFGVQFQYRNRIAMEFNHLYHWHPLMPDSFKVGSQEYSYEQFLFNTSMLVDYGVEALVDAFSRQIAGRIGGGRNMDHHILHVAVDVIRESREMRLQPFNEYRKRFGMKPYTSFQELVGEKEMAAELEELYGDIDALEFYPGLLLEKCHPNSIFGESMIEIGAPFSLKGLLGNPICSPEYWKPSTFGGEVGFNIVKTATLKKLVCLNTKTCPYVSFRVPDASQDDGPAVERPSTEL

As a reminder, the IC50 is the point on the concentration scale where inhibition reaches its midpoint. In general, ED50 refers to the midpoint of the dose-response relation. The low end stands for greater potency, the high end for weaker potency. In the case of `CC(C)(C)c1cc(C(=O)N2CC(O)C2)cc(C(C)(C)C)c1` [Example 2, (3,5-di-tert-butyl-phenyly)-(3-hydroxy-azetidin-1-yl)-methanone], the IC50 was 500 nM in assay [1] and 800 nM in assay [2]. This compound also registered a 50% effective dose (ED50) in assay [3] of 28 mg/kg.
`CC1C(O)CN1C(=O)c1cc(C(C)(C)C)c(O)c(C(C)(C)C)c1` (centres unmarked) [Example 4, (3,5-di-tert-butyl-4-hydroxy-phenyl)-(3-hydroxy-2-methyl-azetidin-1-yl)-methanone]: the IC50 in assay [1] and in assay [2] was 500 nM each time. For the same compound, the ED50 in assay [3] was 31 mg/kg.
Consider `CC(C)(C)c1cc(C(=O)N2CC(O)C2)cc2c1OCC2(C)C` [Example 14, (7-tert-butyl-3,3-dimethyl-2,3-dihydro-benzofuran-5-yl)-(3-hydroxy-azetidin-1-yl)-methanone], for which the figures for the half-inhibitory concentration (IC50) in assay [1] and in assay [2] were 50 nM and 100 nM, respectively.
